# From patent publication US20090118211A1, “Compositions and Methods for Enhancement of Sexual Function” (priority 2005, published 2009)
# Where “and” joins values, the source holds several entries; their conditions need not be identical. Equal values may be shown once. Read-outs that look alike come from different tables or passages of the source.
# Key:
# premature ejaculation [1] = conditions: cited from earlier work
# [2] = cited from earlier work; for maximum observed plasma concentration (Cmax): oral administration
# erectile dysfunction [3] = conditions: oral administration of 50-100 mg; cited from earlier work
# erectile dysfunction [4] = assay: Retrospective analysis of clomipramine with or without a commercial PDE5 inhibitor taken as needed: subjectively rated erection; conditions: after 8 weeks, one patient per row
# premature ejaculation [5] = assay: Retrospective analysis of clomipramine with or without a commercial PDE5 inhibitor taken as needed: ejaculation time; conditions: rated after 8 weeks, one patient per row
# [6] = system: SSRI-induced sexual dysfunction; conditions: in vivo; cited from earlier work
smiles,measurement,setting,value
CCCc1nn(C)c2c(=O)[nH]c(-c3cc(S(=O)(=O)N4CCN(C)CC4)ccc3OCC)nc12 [sildenafil],effect alone for men with premature ejaculation,premature ejaculation [1]; PDE5 inhibitor alone,ineffective
same,maximum observed plasma concentration (Cmax),[2]; 50-100 mg,18 ng/mL
same,subjects studied found to respond well,erectile dysfunction [3],82%
"CN(C)CCCN1c2ccccc2CCc2ccc(Cl)cc21 [Clomipramine, clomipramine]",Erection (% satisfaction) after (%),erectile dysfunction [4]; Clomipramine 10 mg alone,100%
same,Erection (% satisfaction) after (%),"erectile dysfunction [4]; Clomipramine 15 mg alone, NC denotes no complain",100%
same,Erection (% satisfaction) after (%),"erectile dysfunction [4]; Clomipramine 25 mg alone, NC denotes no complain",100%
same,time to climax in premature ejaculators,premature ejaculation [1]; 50 mg,more than 8 minutes
same,latency to ejaculation,"premature ejaculation [1]; 25 milligrams 12 to 24 hours before anticipated sexual activity, from about 1.5 to 2 minutes",about 8 minutes
same,effect alone in men with premature ejaculations who were also impotent,premature ejaculation [1]; clomipramine alone,ineffective
same,time of peak plasma levels after dosage,[2]; much individual variation,2 to 6 h
same,"time required to reach peak plasma concentration, longer than that required by tadalafil",[2]; relative to tadalafil,about 2 hours
same,"time required to reach peak plasma concentration, longer than that required by either vardenafil or sildenafil",[2]; relative to vardenafil or sildenafil,3 h
same,Ejaculation Time (minutes) after treatment,premature ejaculation [5]; Clomipramine 10 mg alone,10 min
same,Ejaculation Time (minutes) after treatment,premature ejaculation [5]; Clomipramine 15 mg alone,10 min and 4 min and 20 min
same,Ejaculation Time (minutes) after treatment,premature ejaculation [5]; Clomipramine 25 mg alone,7 minutes (2×) and 20 minutes (2×) and 15 minutes
same,Ejaculation Time (minutes) after treatment,premature ejaculation [5]; Clomipramine 30 mg alone,10 minutes (3×) and 15 minutes (2×) and 8 minutes and 4 minutes (2×) and 5 minutes and 20 minutes and 0.25 minutes and 3 minutes
"CN[C@H]1CC[C@@H](c2ccc(Cl)c(Cl)c2)c2ccccc21 [Sertraline, sertraline]",effect as ejaculation delaying agent,"premature ejaculation [1]; 4 hours before sex, primary premature ejaculation versus sildenafil-corrected erectile dysfunction",effective as ejaculation delaying agent only for patients having primary premature ejaculation
CCCc1nc(C)c2c(=O)[nH]c(-c3cc(S(=O)(=O)N4CCN(CC)CC4)ccc3OCC)nn12 [vardenafil],AUC and Cmax versus dose,"[2]; oral dosing, recommended dose range (5-20 mg)",increase in almost direct proportion to the dose
CCCN(CCC)CCc1cccc2c1CC(=O)N2 [ropinrole],"effect on sexual dysfunction induced by citalopram, sertraline, paroxetine, fluoxetine and venlafaxine treatment",[6],effective
CN1CC(=O)N2[C@H](c3ccc4c(c3)OCO4)c3[nH]c4ccccc4c3C[C@@H]2C1=O [tadalafil],Systemic exposure (AUC) versus dose,[2]; doses from 2.5 mg to 20 mg,increases proportionately
same,increase in Cmax versus dose,[2]; doses from 2.5 mg to 20 mg,slightly less than proportional
same,degree of drug accumulation,[2]; once-daily 20 mg dosing,1.6 fold
same,time to attain steady-state plasma concentrations,[2]; once-daily 20 mg dosing,≤ 5 days
same,maximum observed plasma concentration (Cmax),[2]; 20 mg,378 ng/mL
